In patent publication US7879881B2, “Piperidinyl compounds that selectively bind integrins” (Janssen Pharmaceutica NV, priority 2002, dated 2011):
Like-named read-outs stand apart in the source and are kept apart here.

How the values were obtained:
Human αvβ3 = biological target: T1, Human αvβ3 (Homo sapiens, UniProt P05106+P06756); test: In Vitro Solid Phase Purified αvβ3 Binding Assay (vitronectin/αvβ3); conditions: vitronectin binding to immobilized purified human αvβ3, mean ± spread
T1 construct: purchased Chemicon International Inc., Temecula, Calif
T1 sequence (P06756 31-889 limits assumed): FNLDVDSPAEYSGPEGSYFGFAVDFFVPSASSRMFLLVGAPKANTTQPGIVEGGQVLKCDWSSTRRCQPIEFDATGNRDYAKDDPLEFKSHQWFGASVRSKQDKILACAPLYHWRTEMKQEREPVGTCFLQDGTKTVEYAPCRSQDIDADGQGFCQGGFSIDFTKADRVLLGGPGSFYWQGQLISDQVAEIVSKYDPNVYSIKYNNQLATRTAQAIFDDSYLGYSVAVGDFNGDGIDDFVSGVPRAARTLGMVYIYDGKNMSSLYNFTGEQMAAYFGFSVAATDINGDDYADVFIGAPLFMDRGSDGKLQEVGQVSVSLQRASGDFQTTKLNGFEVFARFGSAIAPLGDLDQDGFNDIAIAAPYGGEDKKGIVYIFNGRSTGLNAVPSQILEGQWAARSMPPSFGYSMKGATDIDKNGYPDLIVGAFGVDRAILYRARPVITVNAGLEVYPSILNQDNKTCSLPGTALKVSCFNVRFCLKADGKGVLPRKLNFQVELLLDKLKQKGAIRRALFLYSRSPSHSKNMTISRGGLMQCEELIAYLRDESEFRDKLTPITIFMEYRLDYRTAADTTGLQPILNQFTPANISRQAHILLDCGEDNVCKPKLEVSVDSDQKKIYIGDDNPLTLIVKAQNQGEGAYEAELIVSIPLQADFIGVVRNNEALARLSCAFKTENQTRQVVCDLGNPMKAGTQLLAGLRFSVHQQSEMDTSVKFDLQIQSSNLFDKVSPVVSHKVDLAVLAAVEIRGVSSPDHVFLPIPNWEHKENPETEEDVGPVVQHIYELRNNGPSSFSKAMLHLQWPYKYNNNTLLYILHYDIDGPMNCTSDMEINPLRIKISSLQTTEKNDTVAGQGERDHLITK
T1 sequence (P06756 891-1048 partner limits assumed): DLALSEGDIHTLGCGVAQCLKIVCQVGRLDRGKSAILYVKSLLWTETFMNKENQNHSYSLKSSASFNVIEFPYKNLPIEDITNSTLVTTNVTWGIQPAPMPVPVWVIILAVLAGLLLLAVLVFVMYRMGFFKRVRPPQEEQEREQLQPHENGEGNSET
T1 sequence (P05106 27-788): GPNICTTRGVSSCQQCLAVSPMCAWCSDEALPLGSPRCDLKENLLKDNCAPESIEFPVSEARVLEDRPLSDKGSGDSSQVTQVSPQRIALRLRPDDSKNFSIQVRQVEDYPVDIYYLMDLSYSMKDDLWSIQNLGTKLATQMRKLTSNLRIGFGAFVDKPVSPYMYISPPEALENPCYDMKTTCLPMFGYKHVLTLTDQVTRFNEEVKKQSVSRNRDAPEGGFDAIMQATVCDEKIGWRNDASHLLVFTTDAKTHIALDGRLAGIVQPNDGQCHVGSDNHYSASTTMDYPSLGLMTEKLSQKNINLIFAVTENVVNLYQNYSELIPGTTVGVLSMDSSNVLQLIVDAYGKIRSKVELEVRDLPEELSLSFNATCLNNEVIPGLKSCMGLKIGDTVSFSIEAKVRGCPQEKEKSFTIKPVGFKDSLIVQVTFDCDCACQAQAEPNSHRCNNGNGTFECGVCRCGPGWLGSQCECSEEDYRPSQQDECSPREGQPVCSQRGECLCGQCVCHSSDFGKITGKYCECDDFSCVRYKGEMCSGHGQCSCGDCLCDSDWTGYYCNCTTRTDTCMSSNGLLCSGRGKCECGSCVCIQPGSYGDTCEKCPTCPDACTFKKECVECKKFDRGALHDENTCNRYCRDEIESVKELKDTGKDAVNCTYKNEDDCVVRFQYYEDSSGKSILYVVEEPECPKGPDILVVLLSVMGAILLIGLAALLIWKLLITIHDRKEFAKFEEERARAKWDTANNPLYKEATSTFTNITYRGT
Description: In Vitro Solid Phase Purified αvβ3 Binding Assay
(§1) Human αvβ3 (Chemicon International Inc., Temecula, Calif.), at a concentration of 1 μg/ml dissolved in Tris buffer (20 mM Tris, 1 mM CaCl2, 1 mM MgCl2, 10 μM MnCl2, 150 mM NaCl), was immobilized on Immulon 96 well plates (Dynex Technologies, Chantilly, Va.) overnight at 4° C. Plates were washed and treated with blocking buffer (3% BSA in Tris buffer) for 2 h at 37° C. Plates were then rinsed 2 times with assay buffer comprised of Tris buffer. Synthesized compounds were added to wells in duplicate immediately prior to the addition of 2 nM vitronectin (Sigma, St. Louis, Mo.). Following a 3 hour incubation at 37° C., plates were washed 5 times in assay buffer. An anti-human vitronectin IgG rabbit polyclonal antibody (Calbiochem, San Diego, Calif.) was added (1:2000) and plates were incubated for 1 hour at room temperature. VectaStain ABC peroxidase kit reagents (Vector Laboratories, Burlingame, Calif.) employing a biotin labeled anti-rabbit IgG, were utilized for detection of bound antibody. Plates were read at 490 nm on a Molecular Devices (Sunnyvale, Calif.) microplate reader.

GP IIb/IIIa = GP IIb/IIIa (Homo sapiens, UniProt P05106+P08514); test: In Vitro Solid Phase Purified GP IIb/IIIa Binding Assay (biotinylated fibrinogen); conditions: biotinylated fibrinogen binding to immobilized purified GP IIb/IIIa, mean ± spread
GP IIb/IIIa, sequence (P08514 32-887 limits assumed): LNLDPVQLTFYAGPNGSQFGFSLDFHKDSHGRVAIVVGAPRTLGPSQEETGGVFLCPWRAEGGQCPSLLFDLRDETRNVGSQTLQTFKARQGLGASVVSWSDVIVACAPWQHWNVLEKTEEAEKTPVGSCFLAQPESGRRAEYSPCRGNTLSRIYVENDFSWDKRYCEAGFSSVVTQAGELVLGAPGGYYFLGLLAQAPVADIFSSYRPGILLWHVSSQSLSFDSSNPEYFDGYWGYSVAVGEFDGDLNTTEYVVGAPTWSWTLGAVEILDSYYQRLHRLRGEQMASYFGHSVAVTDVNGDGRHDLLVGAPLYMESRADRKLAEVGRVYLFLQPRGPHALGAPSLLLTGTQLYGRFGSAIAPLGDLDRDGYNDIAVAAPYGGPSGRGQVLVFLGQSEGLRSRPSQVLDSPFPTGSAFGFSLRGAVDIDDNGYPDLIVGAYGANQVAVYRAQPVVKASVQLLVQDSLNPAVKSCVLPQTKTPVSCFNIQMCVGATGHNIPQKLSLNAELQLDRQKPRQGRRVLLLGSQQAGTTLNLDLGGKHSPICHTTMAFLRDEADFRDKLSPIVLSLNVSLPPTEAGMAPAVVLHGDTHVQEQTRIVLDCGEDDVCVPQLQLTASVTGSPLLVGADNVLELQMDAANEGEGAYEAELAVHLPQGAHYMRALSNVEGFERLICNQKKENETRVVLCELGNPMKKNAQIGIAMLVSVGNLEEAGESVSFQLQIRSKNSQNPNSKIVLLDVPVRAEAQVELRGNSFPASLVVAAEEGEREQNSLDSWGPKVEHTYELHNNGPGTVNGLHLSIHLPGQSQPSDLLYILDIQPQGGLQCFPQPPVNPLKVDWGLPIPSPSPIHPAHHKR
GP IIb/IIIa, sequence (P08514 891-1039 partner limits assumed): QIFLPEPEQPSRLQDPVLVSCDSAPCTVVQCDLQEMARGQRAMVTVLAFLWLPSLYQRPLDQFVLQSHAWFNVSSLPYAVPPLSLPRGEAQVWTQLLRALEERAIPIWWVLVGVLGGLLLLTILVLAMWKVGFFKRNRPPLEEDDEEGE
GP IIb/IIIa, sequence (P05106 27-788): as the sequence (P05106 27-788) above
Description: In Vitro Solid Phase Purified GP IIb/IIIa Binding Assay
The plate was covered and incubated overnight at 4° C. The GP IIb/IIIa solution was discarded and 150 μL of 5% BSA was added and incubated at RT for 1-3 h. The plate was washed extensively with modified Tyrodes buffer. Biotinylated fibrinogen (25 μL/well) at 2× final concentration was added to the wells that contain the test compounds (25 μL/well). The plate was covered and incubated at RT for 2-4 h. Twenty minutes prior to incubation completion, one drop of Reagent A (VectaStain ABC Horseradish Peroxidase kit, Vector Laboratories, Inc.) and one drop Reagent B were added with mixing to 5 mL modified Tyrodes buffer mix and let stand. The ligand solution was discarded and the plate washed (5×200 μL/well) with modified Tyrodes buffer. […] The Vecta Stain solution was discarded and the wells washed (5×200 μL/well) with modified Tyrodes buffer. Developing buffer (10 mL of 50 mM citrate/phosphate buffer @ pH 5.3, 6 mg o-phenylenediamine, 6 μL 30% H2O2; 50 μL/well) was added and incubated at RT for 3-5 min and then 2 N H2SO4 (50 μL/well) was added.

human purified αVβ5 = biological target: T2, human purified αVβ5 (Homo sapiens, UniProt P06756+P18084); test: In Vitro Solid Phase Purified αcβ5 Binding Assay (vitronectin/αVβ5); conditions: vitronectin binding to immobilized purified human αVβ5, mean ± spread
T2 construct: purchased Chemicon International, Inc
T2 sequence (P06756 31-889 limits assumed): as the sequence (P06756 31-889 limits assumed) above
T2 sequence (P06756 891-1048 partner limits assumed): as the sequence (P06756 891-1048 partner limits assumed) above
T2 sequence (P18084 24-799): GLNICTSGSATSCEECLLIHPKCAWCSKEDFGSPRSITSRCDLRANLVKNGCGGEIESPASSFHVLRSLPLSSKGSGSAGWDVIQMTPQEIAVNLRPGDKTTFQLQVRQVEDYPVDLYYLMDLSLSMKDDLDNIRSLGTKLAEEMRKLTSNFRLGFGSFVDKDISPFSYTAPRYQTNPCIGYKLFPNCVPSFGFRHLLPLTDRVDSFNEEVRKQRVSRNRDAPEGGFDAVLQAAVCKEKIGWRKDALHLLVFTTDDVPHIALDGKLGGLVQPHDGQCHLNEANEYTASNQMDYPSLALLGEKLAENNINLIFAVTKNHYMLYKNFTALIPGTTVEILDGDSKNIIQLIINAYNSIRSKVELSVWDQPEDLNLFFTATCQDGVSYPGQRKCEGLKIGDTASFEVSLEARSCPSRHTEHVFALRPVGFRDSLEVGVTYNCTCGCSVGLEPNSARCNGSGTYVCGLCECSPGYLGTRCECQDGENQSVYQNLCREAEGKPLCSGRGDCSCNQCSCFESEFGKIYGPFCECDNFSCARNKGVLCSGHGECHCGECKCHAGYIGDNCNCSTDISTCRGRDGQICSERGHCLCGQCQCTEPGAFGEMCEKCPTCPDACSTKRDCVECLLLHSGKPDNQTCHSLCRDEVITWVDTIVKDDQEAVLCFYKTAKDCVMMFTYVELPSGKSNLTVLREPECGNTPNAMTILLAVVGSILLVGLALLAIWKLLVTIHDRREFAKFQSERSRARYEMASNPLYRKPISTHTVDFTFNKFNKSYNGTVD
Description: as §1
In Vitro Solid Phase Purified αcβ5 Binding Assay
All other aspects of the assay including buffers, reagents and incubation times remain unchanged.

| Structure (SMILES) | IC50 (Human αvβ3; read-out: αvβ3IC50) | IC50 (human purified αVβ5; read-out: αvβ5 IC50) | IC50 (GP IIb/IIIa; read-out: αIIbβ3 IC50) | IC50 (GP IIb/IIIa; αIIbβ3 IC50 (uM)) | IC50 (Human αvβ3; αvβ3IC50 (uM)) | IC50 (human purified αVβ5; αvβ5 IC50 (uM)) |
| --- | --- | --- | --- | --- | --- | --- |
| O=C(O)CC(CC1CCN(C(=O)CCc2ccc3c(n2)NCCC3)CC1)C1CNc2ccccc2C1 (stereo not drawn) [Cpd 19, 1,2,3,4-tetrahydro-β-[[1-[1-oxo-3-(5,6,7,8-tetrahydro-1,8-naphthyridin-2-yl)propyl]-4-piperidinyl]methyl]-3-quinolinepropanoic acid] | 0.0025 ± 0.0004 µM | 0.0171 ± 0.0025 µM |  | 13.8 ± 9.69 µM |  |  |
| COc1ccc(C(CC(=O)O)CC2CCN(C(=O)CCc3ccc4c(n3)NCCC4)CC2)cn1 (single isomer, unassigned) [Cpd 28a, 6-methoxy-β-[[1-[1-oxo-3-(5,6,7,8-tetrahydro-1,8-naphthyridin-2-yl)propyl]-4-piperidinyl]methyl]-3-pyridinepropanoic acid] | 0.0003 ± 0.0002 µM | 0.0042 ± 0.0018 µM |  | 1.83 ± 0.57 µM |  |  |
| O=C(O)CC(C1CCN(C(=O)CCCc2ccc3c(n2)NCCC3)CC1)C1CNc2ccccc2C1 (single isomer, unassigned) [Cpd 5-4, 1,2,3,4-Tetrahydro-β-[1-[1-oxo-4-(5,6,7,8-tetrahydro-1,8-naphthyridin-2-yl)butyl]-4-piperidinyl]-3-quinolinepropanoic acid] |  |  | 9.82 µM |  | 0.0054 ± 0.0002 µM | 0.162 ± 0.0627 µM |
| O=C(O)CC(CCC1CCN(C(=O)CCCNc2ccccn2)CC1)c1ccc2c(c1)OCO2 (stereo not drawn) [Cpd 23, β-(1,3-benzodioxol-5-yl)-1-[1-oxo-4-(2-pyridinylamino)butyl]-4-piperidinepentanoic acid] | 0.298 ± 0.146 µM | 2.01 µM | 4.93 µM |  |  |  |
| O=C(O)CC(CC1CCN(C(=O)CCc2ccc3c(n2)NCCC3)CC1)c1ccc2ccccc2c1 (single isomer, unassigned) [Cpd 56b, 3-Naphthalen-2-yl-4-[1-(3-5,6,7,8-tetrahydro-[1,8]naphthyridin-2-yl-propionyl)-piperidin-4-yl]-butyric acid] | 0.326 ± 0.0894 µM | 0.81 ± 0.104 µM |  |  |  |  |
| O=C(O)CC(c1ccc2c(c1)OCO2)C1CCN(C(=O)CCCNc2ccccn2)CC1 (stereo not drawn) [Cpd 24, β-(1,3-benzodioxol-5-yl)-1-[1-oxo-4-(2-pyridinylamino)butyl]-4-piperidinepropanoic acid] | 0.307 µM | 0.387 µM | 19.3 µM |  |  |  |
| CN1CC(C(CC(=O)O)CC2CCN(C(=O)CCc3ccc4c(n3)NCCC4)CC2)Cc2ccccc21 (racemic) [Cpd 67, N-Methyl-1,2,3,4-tetrahydro-β-[[1-[1-oxo-3-(5,6,7,8-tetrahydro-1,8-naphthyridin-2-yl)propyl]-4-piperidinyl]methyl]-3-quinolinepropanoic acid] |  |  | 7.82 µM |  | 0.048 ± 0.003 µM | 0.176 ± 0.035 µM |
| O=C(O)CC(c1cnc2ccccc2c1)C1CCN(C(=O)CCCc2ccc3c(n2)NCCC3)CC1 (stereo not drawn) [Cpd 4, β-[1-[1-Oxo-4-(5,6,7,8-tetrahydro-1,8-naphthyridin-2-yl)butyl]-4-piperidinyl]-3-quinolinepropanoic acid] |  |  |  | 0.87 ± 0.19 µM | 0.0005 ± 0.0001 µM | 0.0355 ± 0.0089 µM |
| O=C(O)CC(CCC1CCN(C(=O)CCCNc2ccccn2)CC1)c1cccnc1 (stereo not drawn) [Cpd 9, β-[2-[1-[1-Oxo-4-(2-pyridinylamino)butyl]-4-piperidinyl]ethyl]-3-pyridinepropanoic acid] | > 1 µM |  | 8.51 ± 2.36 µM |  |  |  |
| O=C(O)CCC1CCN(C(=O)CCc2cccc(NC3=NCCCN3)c2)CC1 [Cpd 2, 1-[1-Oxo-3-[3-[(1,4,5,6-tetrahydro-2-pyrimidinyl)amino]phenyl]propyl]-4-piperidinepropanoic acid] | 5.4 µM |  | 4.78 ± 1.01 µM |  |  |  |
| O=C(O)CC(CC1CCN(C(=O)CCc2ccc3c(n2)NCCC3)CC1)C1CNc2ccccc2C1 (single isomer, unassigned) [Cpd 19-3, 1,2,3,4-tetrahydro-β-[[1-[1-oxo-3-(5,6,7,8-tetrahydro-1,8-naphthyridin-2-yl)propyl]-4-piperidinyl]methyl]-3-quinolinepropanoic acid] | 0.0447 ± 0.0204 µM | 1.17 ± 0.02 µM |  |  |  |  |
| O=C(O)CC(C1CCN(C(=O)CCCc2ccc3c(n2)NCCC3)CC1)C1CNc2ccccc2C1 (single isomer, unassigned) [Cpd 5-3, 1,2,3,4-Tetrahydro-β-[1-[1-oxo-4-(5,6,7,8-tetrahydro-1,8-naphthyridin-2-yl)butyl]-4-piperidinyl]-3-quinolinepropanoic acid] |  | > 5 µM |  |  | 0.161 µM |  |

More lines, main results first:

| IC50 (Human αvβ3; read-out: αvβ3IC50) | IC50 (human purified αVβ5; read-out: αvβ5 IC50) | IC50 (GP IIb/IIIa; read-out: αIIbβ3 IC50) | Structure (SMILES) | IC50 (GP IIb/IIIa; αIIbβ3 IC50 (uM)) | IC50 (Human αvβ3; αvβ3IC50 (uM)) | IC50 (human purified αVβ5; αvβ5 IC50 (uM)) |
| --- | --- | --- | --- | --- | --- | --- |
| 0.0032 ± 0.0006 µM | 0.036 ± 0.0133 µM | 11.1 ± 3.4 µM | O=C(O)CC(CC1CCN(C(=O)CCc2ccc3c(n2)NCCC3)CC1)c1ccccc1 (stereo not drawn) [Cpd 13, 1-[1-oxo-3-(5,6,7,8-tetrahydro-1,8-naphthyridin-2-yl)propyl]-β-phenyl-4-piperidinebutanoic acid] |  |  |  |
| 0.0361 ± 0.0001 µM | 0.108 ± 0.034 µM | 5.04 µM | O=C(O)CC(c1ccc2c(c1)OCO2)C1CCN(C(=O)CCc2ccc3c(n2)NCCC3)CC1 (stereo not drawn) [Cpd 14, β-(1,3-benzodioxol-5-yl)-1-[1-oxo-3-(5,6,7,8-tetrahydro-1,8-naphthyridin-2-yl)propyl]-4-piperidinepropanoic acid] |  |  |  |
| 0.0213 ± 0.0019 µM | 0.841 ± 0.405 µM | 5.31 µM | COc1ccc(C(CCC2CCN(C(=O)CCc3ccc4c(n3)NCCC4)CC2)CC(=O)O)cn1 (single isomer, unassigned) [Cpd 21a, 6-methoxy-β-[2-[1-[1-oxo-3-(5,6,7,8-tetrahydro-1,8-naphthyridin-2-yl)propyl]-4-piperidinyl]ethyl]-3-pyridinepropanoic acid] |  |  |  |
| 0.001 ± 0.0002 µM | 0.0028 ± 0.0001 µM | 14.4 ± 5.98 µM | O=C(O)CC(CC1CCN(C(=O)CCc2ccc3c(n2)NCCC3)CC1)c1cccc(F)c1 (stereo not drawn) [Cpd 30, β-(3-fluorophenyl)-1-[1-oxo-3-(5,6,7,8-tetrahydro-1,8-naphthyridin-2-yl)propyl]-4-piperidinebutanoic acid] |  |  |  |
| 0.09 ± 0.002 µM | 0.17 ± 0.081 µM | > 50 µM | O=C(O)CC(CC1CCN(C(=O)CCc2ccc3c(n2)NCCC3)CC1)C1CCOC1 (racemic) [Cpd 62] |  |  |  |
| 0.0019 ± 0.0002 µM | 0.0334 ± 0.0063 µM | 4.03 ± 0.43 µM | O=C(O)CC(c1ccc2c(c1)OCO2)C1CCN(C(=O)CCCc2ccc3c(n2)NCCC3)CC1 (stereo not drawn) [Cpd 15, β-(1,3-benzodioxol-5-yl)-1-[1-oxo-4-(5,6,7,8-tetrahydro-1,8-naphthyridin-2-yl)butyl]-4-piperidinepropanoic acid] |  |  |  |
| 0.0053 ± 0.001 µM | 0.0419 ± 0.0052 µM | > 50 µM | CN(C)c1cccc(C(CC(=O)O)CC2CCN(C(=O)CCc3ccc4c(n3)NCCC4)CC2)c1 (racemic) [Cpd 75] |  |  |  |
| 0.028 ± 0.0031 µM | 0.78 µM | 1.8 ± 0.63 µM | COc1ccc(C(CCC2CCN(C(=O)CCc3ccc4c(n3)NCCC4)CC2)CC(=O)O)cn1 (stereo not drawn) [Cpd 21, 6-methoxy-β-[2-[1-[1-oxo-3-(5,6,7,8-tetrahydro-1,8-naphthyridin-2-yl)propyl]-4-piperidinyl]ethyl]-3-pyridinepropanoic acid] |  |  |  |
| 0.0298 ± 0.0137 µM | 0.138 ± 0.0415 µM | 0.94 ± 0.05 µM | O=C(O)CC(CCC1CCN(C(=O)c2cccc(NC3=NCCCC3)c2)CC1)c1ccc2c(c1)OCO2 (stereo not drawn) [Cpd 53, β-(1,3-benzodioxol-5-yl)-1-[3-[(3,4,5,6-tetrahydro-2-pyridinyl)amino]benzoyl]-4-piperidinepentanoic acid] |  |  |  |
| 0.084 µM | 0.129 µM | > 50 µM | O=C(O)CC(CC1CCN(C(=O)CCc2ccc3c(n2)NCCC3)CC1)c1ccc2c(c1)OCC2 (single isomer, unassigned) [Cpd 36b, 3-(2,3-Dihydro-benzofuran-6-yl)-4-[1-(3-5,6,7,8-tetrahydro-[1,8]naphthyridin-2-yl-propionyl)-piperidin-4-yl]-butyric acid] |  |  |  |
| 0.0019 ± 0.0006 µM | 0.0245 ± 0.0065 µM | 39.1 ± 0.785 µM | O=C(O)CC(CC1CCN(C(=O)CCc2ccc3c(n2)NCCC3)CC1)c1ccc2ccccc2c1 (stereo not drawn) [Cpd 56, β-(2-naphthalenyl)-1-[1-oxo-3-(5,6,7,8-tetrahydro-1,8-naphthyridin-2-yl)propyl]-4-piperidinebutanoic acid] |  |  |  |
| 0.138 µM | 0.789 ± 0.065 µM |  | O=C(O)CC(CC1CCN(C(=O)c2cccc(NC3=NCCN3)c2)CC1)c1cccc(F)c1 (racemic) [Cpd 77] |  |  |  |
